Eight molecules from patent US20230250108A1, “TETRAHYDROISOQUINOLINE COMPOUNDS AND USE THEREOF” (JIANGSU SIMCERE PHARMACEUTICAL CO., LTD., priority 2020, published 2023) can be followed below.

Data set [1] can be described thus: Hepatocellular metabolic stability test, mouse hepatocytes.
From the text: (§2) Experimental materials: Human hepatocytes were purchased from Biopredic; mouse hepatocytes were purchased from BioIVT; acetonitrile and methanol were purchased from Merck & Co., Inc.; AOPI dyes were purchased from Nexcelom; dexamethasone was purchased from NIFDC; DMSO was purchased from Beijing Solarbio Science & Technology Co., Ltd.; DPBS (10×), GlutaMAX™-1 (100×) and recombinant human insulin were purchased form Gibco by Life Technologies; fetal bovine serum was purchased from Corning; formic acid was purchased from DIKMAPURE; Isotonic Percoll was purchased from GE Healthcare; alprazolam was purchased from Supelco; caffeine was purchased from ChromaDex.inc; and HEPES, tolbutamide and Williams' Medium E were purchased from Sigma.
(§3) The powder of a test substance was formulated with DMSO into a stock solution with a high concentration, which was diluted to a working solution of 100 μM with acetonitrile prior to use. The final concentration of the test substance was 1 μM.
(§4) 49.5 mL of Williams'E Medium and 0.5 mL of GlutaMAX were mixed as an incubation media. Hepatocyte thawing media and incubation media were placed in a 37° C. water-bath and pre-heated for at least 15 minutes prior to use. A tube of hepatocytes stored at an ultra-low temperature was taken and the hepatocytes were ensured to be at a frozen state at a low temperature prior to thawing. The hepatocytes were rapidly placed in a 37° C. water-bath and gently shaken until all the ice crystals were dispersed, and then after 70% ethanol was sprayed, the hepatocytes were transferred to a biosafety cabinet. The content of the tube was poured into a centrifugal tube containing 50 mL of thawing media and centrifuged at 100 g for 10 minutes. After centrifugation, the thawing media was aspirated, and a sufficient amount of incubation media was added to obtain a cell suspension with a cell density of about 1.5×10^6 cells/mL. The hepatocytes were counted, and the viable cell density was determined using Cellometer Vision, and the survival rate of the hepatocytes must be higher than 75%. The hepatocyte suspension was diluted by using the incubation media to a viable cell density of 0.5×10^6 viable cells/mL.
(§5) 247.5 μL of viable cell (human hepatocytes or mouse hepatocytes) suspension or media were transferred into a 96-well deep-well plate, and the deep-well plate was placed in a vortex incubator and pre-heated for 10 minutes. Incubation of all the samples was performed in parallel duplicate. Test substance (2.5 μL, 100 μM) was added into each well to start the reaction and the deep-well plate was placed in the vortex incubator again. The samples were incubated, and 25 μL of the suspension was taken at 0, 15, 30, 60, 90 and 120 minutes, respectively. 125 μL of acetonitrile containing internal standard (100 nM alprazolam, 200 nM caffeine, and 100 nM tolbutamide) was added to terminate the reaction. The mixture was vortexed for 10 minutes and centrifuged at 3220 g, 4° C. for 30 minutes. After centrifugation, 100 μL of the supernatant was transferred into the loading plate and 150 μL of pure water was added and mixed uniformly for LC-MS/MS analysis.
(§6) All the data calculation was performed by the Microsoft Excel software. The peak area was detected by extracting the ion chromatogram. The in vitro half-life (t1/2) of the parent drug was detected by performing linear fitting of the natural logarithm of elimination percent of the parent drug and time.
(§7) The in vitro half-life (t1/2) was calculated by means of the slope:
Data set [2] in a line: Hepatocellular metabolic stability test, human hepatocytes.
From the text: as §2, §3, §4, §5, §6, §7
The next data set concerns Z-138 cells. Kind of data set: Inhibitory activity on tumor cell proliferation (Cell-Titer Glo, 8 days). The format is cell-based. The following applies: Homo sapiens, 192 h, read-out: Inhibition of cell proliferation Z-138 IC50. How it is done:
Materials and cells: Z-138 cells were purchased from ATCC (USA); IMDM medium and penicillin-streptomycin were purchased from Sigma PLC. (USA); horse serum was purchased from Hyclone (USA); 96-well plate was purchased from Corning (USA); and Cell-Titer Glo reagent was purchased from Promega (USA).
(§1) Cell culture: Z-138 cells were cultured in an IMDM culture solution containing 10% Horse serum+1% penicillin−streptomycin at 37° C., 5% CO2. Cells in logarithmic growth phase were suitable for the experiment.
Detection of cell proliferation activity: The inhibitory activities of the compounds on the proliferation of Z-138 cells were detected by using the Cell-Titer Glo reagent. The concentrations of the cells were adjusted, and 180 μL was inoculated in each well of the 96-well plate (500/well) and equilibrated for 10-15 minutes at 37° C., 5% CO2. 20 μL of a culture solution containing the compounds was added into each well with the final concentration reaching 0-300 nM (initial concentration: 300 nM, 3-fold dilution, for 10 points), and the DMSO content was 0.1%. The cell plate was placed at 37° C., 5% CO2 and incubated for 8 days. Culture solution was replaced at day 4: 100 μL of the supernatant was slowly aspirated and 100 μL of a fresh culture solution containing the compounds was provided as a supplement while the concentrations of the compounds were held constant. The cell viability was detected by using the Cell-Titer Glo reagent.

The test system of another data set is SDMA in Z-138 cells. Briefly: Inhibitory activity on SDMA in cells (immunofluorescent assay). The data set is classed as cell-based. The following applies: Homo sapiens, 48 h, 2 days, read-out: Inhibition of SDMA in cells IC50.
From the text: Materials and cells: Z-138 cells were purchased from ATCC (USA); IMDM medium and penicillin-streptomycin were purchased from Sigma PLC. (USA); horse serum was purchased from Hyclone (USA); Hoechst antibodies were purchased from Invitrogen (USA); Alexa Fluor 488 goat anti-rabbit IgG antibodies were purchased from Invitrogen (USA); Anti-dimethyl-Arginine symmetric (SYM11) antibodies were purchased from Merck & Co., Inc. (USA); DPBS was purchased from Gibco (USA); Nonfat Dry milk was purchased from Cell Signaling Technology (USA); paraformaldehyde was purchased from Beijing Solarbio Science & Technology Co., Ltd.; 384-well plate and Echo 550 Liquid Handler were purchased from Labcyte Inc. (USA); and an ImageXpress Nano was purchased from Molecular Devices (USA).
as §1
Immunofluorescent assay: The effects of the compounds on SDMA in Z-138 cells were detected by using immunofluorescence. The cells were adjusted to the concentration of 1*10^5/mL and 40 μL was inoculated in each well of the 384-well plate (4000/well) and equilibrated for 10-15 minutes at 37° C., 5% CO2. The compound was added into a 384-well plate by using the Echo 550 Liquid Handler with the final concentration of 0-300 nM (initial concentration: 300 nM, 3-fold dilution, for 10 points), and the DMSO content was 0.1%. The cell plate was placed at 37° C., 5% CO2 and incubated for 2 days. 40 μL of 8% paraformaldehyde was added into each well and incubated at room temperature for 30 minutes. The supernatant was discarded, the plate was washed with DPBS, and 40 μL of 0.5% PBST (phosphate buffer with Tween) was added into each well and incubated at room temperature for 60 minutes. The supernatant was discarded, the plate was washed with 0.05% PBST, and 40 μL of a blocking solution (1% Nonfat milk in 0.05% PBST) was added into each well and incubated at room temperature for 60 minutes. The supernatant was discarded, and 20 μL of the primary antibody (SYM11, diluted with a blocking solution at 1:500) was added into each well and maintained at 4° C. overnight. The supernatant was discarded, the plate was washed with 0.05% PBST, 20 μL of the secondary antibody (Alexa Fluor 488 goat anti-rabbit and Hoechst, diluted with a blocking solution at 1:1000 and 1:5000, respectively) was added to each well and incubated at room temperature for 60 minutes. The supernatant was discarded, the plate was washed with 0.05% PBST, and the fluorescent intensity was detected with ImageXpress Nano.

A further data set has as its target T1, PRMT5/MEP50 (Homo sapiens, UniProt O14744).
T1 construct: purchased BPS Bioscience Inc. (USA)
Briefly: PRMT5 enzymatic activity inhibition experiment (AlphaScreen). The data set is classed as biochemical. From the text:
Materials: PRMT5/MEP50 proteins were purchased from BPS Bioscience Inc. (USA); Histone H4 Peptide substrate was purchased from Sangon Biotech (Shanghai) Co., Ltd.; Anti-Histone H4 (symmetric dimethyl R3) antibody—ChIP Grade was purchased from Abcam PLC. (USA); S-(5′-Adenosyl)-L-methionine chloride dihydrochloride was purchased from Sigma PLC. (USA); 384-well plate, AlphaScreen Streptavidin Donor beads, AlphaScreen Protein A Acceptor beads, and Envision 2104 multi-label Reader were purchased from Perkin-Elmer Instruments (USA) Corporation; and Echo 550 Liquid Handler was purchased from Labcyte Inc. (USA).
Enzymatic activity assay: The compounds were added into a 384-well plate by using the Echo 550 Liquid Handler with the final concentration of 0-1000 nM (initial concentration: 1000 nM, 3-fold dilution, for 10 points), and the DMSO content was 0.5%. 10 μL of a 2× PRMT5/MEP50 solution was added into each well and incubated at room temperature for 30 minutes. 10 μL of 2× PRMT5/MEP50 substrate solution was added to each well to start the reaction and incubated at room temperature for 60 minutes. A 6× detection reagent containing AlphaScreen Protein A Acceptor beads and Anti-Histone H4 (symmetric dimethyl R3) antibodies was prepared and 5 μL was added to each well. The plate was incubated at room temperature for 60 minutes. A 6× detection reagent containing AlphaScreen Streptavidin Donor beads was prepared and 5 μL was added to each well. The plate was incubated at room temperature for 60 minutes. The signal values were detected by using the Envision.

Data set [3] is described as follows: in vitro. The following applies: human, hepatocytes.
From the text: as §2, §3, §4, §5, §6, §7
Data set [4] in a line: in vitro. The following applies: mouse, hepatocytes.
From the text: as §2, §3, §4, §5, §6, §7
The mark [5] stands for this setting: PRMT5/MEP50, Histone H4 peptide substrate, read-out: Inhibition of enzymatic activity IC50.

In general, half-life refers to the time needed for the level to fall by half in the phase considered.

Where a name gives a salt, the structure may show the parent alone. Read-outs that look alike come from different tables or passages of the source.

T1 sequence (O14744 2-637 limits assumed): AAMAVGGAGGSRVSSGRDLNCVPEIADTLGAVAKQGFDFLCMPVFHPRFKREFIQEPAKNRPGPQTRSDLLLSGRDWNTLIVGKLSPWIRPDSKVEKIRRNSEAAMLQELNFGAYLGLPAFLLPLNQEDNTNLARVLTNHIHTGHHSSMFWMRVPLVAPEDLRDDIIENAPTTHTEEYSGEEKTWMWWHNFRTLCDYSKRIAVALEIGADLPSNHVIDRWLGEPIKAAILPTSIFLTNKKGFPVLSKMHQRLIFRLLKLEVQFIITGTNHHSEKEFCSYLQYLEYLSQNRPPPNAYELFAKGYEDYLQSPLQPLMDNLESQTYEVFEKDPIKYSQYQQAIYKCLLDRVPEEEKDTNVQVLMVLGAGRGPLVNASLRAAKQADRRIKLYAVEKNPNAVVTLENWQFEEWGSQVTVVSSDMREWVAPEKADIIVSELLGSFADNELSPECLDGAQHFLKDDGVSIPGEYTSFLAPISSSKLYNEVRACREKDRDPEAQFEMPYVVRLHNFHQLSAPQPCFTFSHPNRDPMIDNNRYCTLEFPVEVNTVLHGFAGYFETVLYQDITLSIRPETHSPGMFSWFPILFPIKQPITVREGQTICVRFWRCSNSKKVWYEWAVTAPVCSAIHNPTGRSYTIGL
T1 sequence (Q9BQA1 2-342 partner limits assumed): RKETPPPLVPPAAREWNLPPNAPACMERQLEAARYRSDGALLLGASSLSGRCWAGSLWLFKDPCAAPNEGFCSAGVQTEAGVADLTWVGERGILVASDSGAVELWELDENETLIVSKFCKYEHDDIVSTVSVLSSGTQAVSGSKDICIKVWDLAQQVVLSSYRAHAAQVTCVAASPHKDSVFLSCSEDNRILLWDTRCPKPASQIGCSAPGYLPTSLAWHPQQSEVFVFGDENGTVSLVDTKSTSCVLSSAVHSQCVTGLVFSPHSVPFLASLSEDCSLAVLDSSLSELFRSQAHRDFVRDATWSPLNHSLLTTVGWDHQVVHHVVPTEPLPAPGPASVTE

For `CCN1CCN(C[C@@H](O)[C@@H]2Cc3ccccc3CN2)C(=O)c2ccc(C(=O)N3C4CCC3COC4)cc21.Cl` [Compound 001, 8-(3-oxa-8-azabicyclo[3.2.1]octane-8-carbonyl)-1-ethyl-4-((R)-2-hydroxy-2-((S)-1,2,3,4-tetrahydroisoquinolin-3-yl)ethyl)-1,2,3,4-tetrahydro-5H-benzo[e][1,4]diazepin-5-one hydrochloride], the figures for the half-life at 1 μM in data set [1] and in data set [2] were 2.04 h and 24.5 h, respectively. Moreover, the IC50 was found to be 3.47 nM with Z-138 cells, 3.8 nM in the data set on SDMA in Z-138 cells and 4.56 nM on PRMT5/MEP50.

`CCN1CCN(C[C@@H](O)[C@@H]2Cc3ccccc3CN2)C(=O)c2ccc(C(=O)N3CCC4(CC3)CC(C#N)C4)cc21` [Compound 003, 7-(1-ethyl-4-((R)-2-hydroxy-2-((S)-1,2,3,4-tetrahydroisoquinolin-3-yl)ethyl)-5-oxo-2,3,4,5-tetrahydro-1H-benzo[e][1,4]diazepine-8-carbonyl)-7-azaspiro[3.5]nonane-2-carbonitrile]: the half-life at 1 μM is 131 h in “in vitro [3]” and 1.97 h in the data set “in vitro [4]”. The IC50 stood at 1.21 nM in the data set on Z-138 cells, 0.8 nM in the data set with SDMA in Z-138 cells and 2.02 nM at PRMT5/MEP50 (setting [5]).

For `CCN1CCN(C[C@@H](O)[C@@H]2Cc3ccccc3CN2)C(=O)c2ccc(C(=O)N3C4CCC3CC(OC)C4)cc21.Cl` (stereo partly drawn) [Compound 004, 1-ethyl-4-((R)-2-hydroxy-2-((S)-1,2,3,4-tetrahydroisoquinolin-3-yl)ethyl)-8-(3-methoxy-8-azabicyclo[3.2.1]octane-8-carbonyl)-1,2,3,4-tetrahydro-5H-benzo[e][1,4]diazepin-5-one hydrochloride], the half-life at 1 μM came to 0.871 h in data set [1] and 11.2 h in data set [2]. Also, the IC50 with Z-138 cells came to 1.87 nM; in the data set on SDMA in Z-138 cells it was 1.4 nM; against PRMT5/MEP50, 4.53 nM.

Turning to `COC1CC2CCC(C1)N2C(=O)c1ccc2c(c1)N(C)CCN(C[C@@H](O)[C@@H]1Cc3ccccc3CN1)C2=O.Cl` (stereo partly drawn) [Compound 005, 4-((R)-2-hydroxy-2-((S)-1,2,3,4-tetrahydroisoquinolin-3-yl)ethyl)-8-(3-methoxy-8-azabicyclo[3.2.1]octane-8-carbonyl)-1-methyl-1,2,3,4-tetrahydro-5H-benzo[e][1,4]diazepin-5-one hydrochloride], the half-life at 1 μM was found to be 1.3 h in data set [1] and 5.61 h in data set [2]. Further, the IC50 in the data set on Z-138 cells came to 4.27 nM; in the data set with SDMA in Z-138 cells, 1.5 nM; against PRMT5/MEP50 it was 6.73 nM.

`CCN1CCN(C[C@@H](O)[C@@H]2Cc3ccccc3CN2)C(=O)c2ccc(C(=O)N3CCC4(CCC(OC)CC4)CC3)cc21` [Compound 006, 1-ethyl-4-((R)-2-hydroxy-2-((S)-1,2,3,4-tetrahydroisoquinolin-3-yl)ethyl)-8-(9-methoxy-3-azaspiro[5.5]undecane-3-carbonyl)-1,2,3,4-tetrahydro-5H-benzo[e][1,4]diazepin-5-one hydrochloride]: the IC50 in the data set on Z-138 cells was determined as 4.8 nM; with SDMA in Z-138 cells, 1.8 nM; on PRMT5/MEP50 (setting [5]) it was 3.62 nM.

Consider `COC1CC2CCC(C1)N2C(=O)c1ccc2c(c1)OCCN(C[C@@H](O)[C@@H]1Cc3ccccc3CN1)C2=O` (stereo partly drawn) [Compound 008, 4-((R)-2-hydroxy-2-((S)-1,2,3,4-tetrahydroisoquinolin-3-yl)ethyl)-8-(3-methoxy-8-azabicyclo[3.2.1]octane-8-carbonyl)-3,4-dihydrobenzo[f][1,4]oxazepin-5(2H)-one], for which the IC50 stood at 6.04 nM with Z-138 cells and 12.2 nM at PRMT5/MEP50 (setting [5]).

Take `COC1CC2(CCN(C(=O)c3ccc4c(c3)OCCN(C[C@@H](O)[C@@H]3Cc5ccccc5CN3)C4=O)CC2)C1` [Compound 009, 4-((R)-2-hydroxy-2-((S)-1,2,3,4-tetrahydroisoquinolin-3-yl)ethyl)-8-(2-methoxy-7-azaspiro[3.5]nonane-7-carbonyl)-3,4-dihydrobenzo[f][1,4]oxazepin-5(2H)-one]: the IC50 in the data set on Z-138 cells stood at 2.97 nM; with SDMA in Z-138 cells it was 6.1 nM; on PRMT5/MEP50 (setting [5]), 4.96 nM.

For `CCN1CCN(C[C@@H](O)[C@@H]2Cc3ccccc3CN2)C(=O)c2ccc(C(=O)N3CCC4(CC3)CC(O)C4)cc21` [Compound 024, 1-ethyl-4-((R)-2-hydroxy-2-((S)-1,2,3,4-tetrahydroisoquinolin-3-yl)ethyl)-8-(2-hydroxy-7-azaspiro[3.5]nonane-7-carbonyl)-1,2,3,4-tetrahydro-5H-benzo[e][1,4]diazepin-5-one], the half-life at 1 μM in “in vitro [3]” was 12.9 h; in the data set “in vitro [4]” it was 0.588 h. The IC50 with Z-138 cells is 10.6 nM.
